Results on seven compounds are retold here after patent US20230096766A1, “AMINO ACID HAVING FUNCTIONAL GROUP CAPABLE OF INTERMOLECULAR HYDROGEN BONDING, PEPTIDE COMPOUND CONTAINING SAME AND METHOD FOR PRODUCTION THEREOF” (Chugai Seiyaku Kabushiki Kaisha, priority 2018, published 2023).

The nature of the data set: in vitro. Particulars: human.

*1 amine or outer side, *2 acyl side, *3 side chain or, on linkers, in order; H or OH if unused. Where a SMILES comes first, the peptide text is derived from it. Bridges are numbered along the chain shown (N, C = ends). [ ]: non-standard residue; d: D form. The star is where a group is joined. ξ: configuration not given here. Phe(3-OMe,4-CONHMs) = COc1cc(C[C@H](N)C(=O)O)ccc1C(=O)NS(C)(=O)=O; NMeAbu(3,3-F2-piperidino) = CN[C@@H](CCN1CCCC(F)(F)C1)C(=O)O; Phe(3-CONHMe,4-OMe) = CNC(=O)c1cc(C[C@H](N)C(=O)O)ccc1OC; Ethyl(2-morpholino) = C1CN(CC*)CCO1; X7 = O=C(C[C@H](COCCO)N[*:1])[*:2]; NMeF = CN[C@@H](Cc1ccccc1)C(=O)O; CH2CH(OH)CF3 = OC(C*)C(F)(F)F; NMeL = CN[C@@H](CC(C)C)C(=O)O; NMeV = CN[C@H](C(=O)O)C(C)C; NMeAbu = CC[C@H](NC)C(=O)O; NMeA = CN[C@@H](C)C(=O)O; Piperidide = C1CCN(*)CC1; CH2CMe2OH = CC(C)(O)C*; NBuGly = CCCCNCC(=O)O; NPrGly = CCCNCC(=O)O; ξS = NC(CO)C(=O)O; Sar = CNCC(=O)O; tBu = CC(C)(C)*

As a reminder, the Papp is the rate of passage across a membrane or cell layer, normalised by area and donor concentration. The low end stands for poor permeation, the high end for ready permeation. For `CCCN1CC(=O)N(C)[C@@H](CC(C)C)C(=O)N[C@@H](COCC(C)(C)O)C(=O)N(C)[C@@H](Cc2ccccc2)C(=O)N(C)[C@@H](CC(C)C)C(=O)N[C@H](C(=O)N2CCCCC2)CC(=O)N[C@H](C(C)C)C(=O)N(C)[C@@H](Cc2ccccc2)C(=O)N[C@@H](CC(C)C)C(=O)N(C)[C@@H](CC(C)C)C(=O)N[C@@H]([C@@H](C)O)C1=O` [AP10] ([dV][NMeF]L[NMeL]T[NPrGly][NMeL]S(CH2CMe2OH)[NMeF][NMeL]D-Piperidide; lactam N-11), the Papp (Caco-2, Caco-2 (cm/sec)) was 1.5 ×10⁻⁶ cm/s.
Same read-out and setting: the result for `CNC(=O)c1cc(C[C@@H]2NC(=O)[C@H](CC(C)C)N(C)C(=O)[C@H](CC(C)C)N(C)C(=O)[C@H](CC(C)C)NC(=O)[C@H](CC(C)C)N(C)C(=O)C[C@@H](C(=O)N3CCCCC3)NC(=O)[C@H](CC(C)C)N(C)C(=O)CN(C)C(=O)[C@H]([C@@H](C)O)NC(=O)[C@H](C(C)C)N(C)C(=O)[C@H](CC(C)C)N(C)C2=O)ccc1OC` [AP40] ([NMeL]L[NMeL][NMeL][Phe(3-CONHMe,4-OMe)][NMeL][NMeV]T[Sar][NMeL]D-Piperidide; lactam N-11) reads 0.63 ×10⁻⁶ cm/s.
In the case of `CC[C@H]1C(=O)N[C@@H](COC(C)(C)C)C(=O)N(C)[C@@H](Cc2ccccc2)C(=O)N(C)[C@@H](CC(C)C)C(=O)N[C@H](C(=O)N2CCCCC2)CC(=O)N[C@H](CC(C)C)C(=O)N(C)[C@@H](Cc2ccccc2)C(=O)N[C@@H](CC(C)C)C(=O)N(C)[C@@H](CC)C(=O)N[C@@H](COCC(O)C(F)(F)F)C(=O)N(C)CC(=O)N1C` (stereo partly drawn) [Compound C10] ([dL][NMeF]L[NMeAbu]S(CH2CH(OH)CF3)[Sar][NMeAbu]S(tBu)[NMeF][NMeL]D-Piperidide; lactam N-11), the Papp (Caco-2, Caco-2 (membrane permeability)) came out at 0.95 ×10⁻⁶ cm/s.
For the compound `CCCCN1CC(=O)N(C)[C@@H](CCN2CCCC(F)(F)C2)C(=O)N[C@H](C(=O)N2CCCCC2)CC(=O)N(C)[C@@H](C)C(=O)N[C@@H](CC(C)C)C(=O)N(C)[C@@H](CC(C)C)C(=O)N(C)[C@@H](Cc2ccccc2)C(=O)N[C@@H](CC(C)C)C(=O)N(C)[C@@H](Cc2ccccc2)C(=O)N(C)[C@@H](C)C(=O)N[C@@H]([C@@H](C)O)C1=O` [pd392] ([NMeA]L[NMeL][NMeF]L[NMeF][NMeA]T[NBuGly][NMeAbu(3,3-F2-piperidino)]D-Piperidide; lactam N-11), the Papp (Caco-2, Caco-2) came to 3.5 ×10⁻⁶ cm/s.
With `CCCCN1CC(=O)N(C)[C@@H](CC(C)C)C(=O)N[C@H](C(=O)N2CCCCC2)CC(=O)N(C)[C@@H](CC)C(=O)NC(COCCN2CCOCC2)C(=O)N(C)[C@@H](CC(C)C)C(=O)N(C)[C@@H](CC)C(=O)N[C@@H](C(C)C)C(=O)N(C)[C@@H](Cc2ccccc2)C(=O)N(C)[C@@H](CC(C)C)C(=O)N[C@@H]([C@@H](C)O)C1=O` (stereo partly drawn) [pd483] ([NMeAbu][ξS](Ethyl(2-morpholino))[NMeL][NMeAbu]V[NMeF][NMeL]T[NBuGly][NMeL]D-Piperidide; lactam N-11), under “Caco-2, Caco-2”, the apparent permeability coefficient (Papp) was 1.9 ×10⁻⁶ cm/s.
Consider `CCCN1CC(=O)N(C)[C@@H](CC(C)C)C(=O)N[C@@H](CC(C)C)C(=O)N(C)[C@@H](Cc2ccccc2)C(=O)N(C)[C@@H](CC(C)C)C(=O)N[C@H](C(=O)N2CCCCC2)CC(=O)N[C@H](CC(C)C)C(=O)N(C)[C@@H](Cc2ccccc2)C(=O)N[C@@H](COCCO)CC(=O)N(C)[C@@H](CC(C)C)C(=O)N[C@@H]([C@@H](C)O)C1=O` [AP20] ([dL][NMeF][X7][NMeL]T[NPrGly][NMeL]L[NMeF][NMeL]D-Piperidide; lactam N-11), for which, under “Caco-2, Caco-2 (cm/sec)”, the apparent permeability coefficient (Papp) was found to be 0.37 ×10⁻⁶ cm/s.
Same read-out and setting: the result for `CCCCN1CC(=O)N(C)[C@@H](CC(C)C)C(=O)N[C@@H](COC(C)(C)C)C(=O)N(C)[C@@H](Cc2ccccc2)C(=O)N(C)[C@@H](CC(C)C)C(=O)N[C@H](C(=O)N2CCCCC2)CC(=O)N[C@H](C(C)C)C(=O)N(C)[C@@H](C(C)C)C(=O)N[C@@H](Cc2ccc(C(=O)NS(C)(=O)=O)c(OC)c2)C(=O)N(C)[C@@H](CC(C)C)C(=O)N[C@@H]([C@@H](C)O)C1=O` [AP135] ([dV][NMeV][Phe(3-OMe,4-CONHMs)][NMeL]T[NBuGly][NMeL]S(tBu)[NMeF][NMeL]D-Piperidide; lactam N-11) reads 0.88 ×10⁻⁶ cm/s.
